Test results taken from patent US20200131476A1, “Differentiation Of Immunocytes Using Pluripotent Stem Cells” (Korea Center For Disease Control And Prevention, priority 2017, published 2020).

System: pluripotent stem cells
Experiment: Differentiation of pluripotent stem cells into CD34+CD45+ hematopoietic stem cells (FACS)
Format: cell-based
Description: 1) Pluripotent stem cells were adapted to a matrigel-coated dish and a mTeSR1 medium for 3 weeks, and then other colonies except for 5 colonies in 35 pi dish were removed by pipetting. This is a process for providing space for the proliferation of differentiated cells in the future. At this time, when vitronectin is used as a coating material or mTeSR8 is used as a medium, the differentiation of hematopoietic stem cells or macrophages can be induced.
2) The medium for culturing the stem cells used in 1) above was replaced with APEL medium. […] The differentiation into mesodermal cells was induced rapidly by treating with BMP4 at a high concentration (100 ng/ml) for 2 days and then sequentially at a low concentration (20 ng/ml) for 2 days.
In addition, the efficiency of differentiation of hematopoietic stem cells can be increased by treating with the CDDO methyl ester compound together with BMP4 for 4 days. […]
CD34+ and CD45+ are markers specifically expressed in hematopoietic stem cells. […] In order to confirm this, the amount of expression of the markers specifically expressed in hematopoietic stem cells was measured.
The differentiated cells were monolayered and reacted with the antibodies CD34 and CD45 labeled with fluorescence. […]

COC(=O)[C@]12CCC(C)(C)C[C@H]1[C@H]1C(=O)C=C3[C@@]4(C)C=C(C#N)C(=O)C(C)(C)[C@@H]4CC[C@@]3(C)[C@]1(C)CC2 [CDDO methyl ester, 2-cyano-3,12-dioxooleana-1,9(11)-dien-28-oic acid methyl ester] was tested. Which “efficiency of differentiation of hematopoietic stem cells, increase” value (50 nM added together with BMP4 for 4 days, versus no CDDO methyl ester, FIG. 4) did it give?
The value was “about 3 times”.

What about the “yield of hematopoietic stem cells” value (further treating with the compound in the BMP4 treatment step) of the same compound?
Its value is “improved by three times or more”.
